Test [1] addresses T1, Recombinant human FAP (Homo sapiens, UniProt Q12884).
T1 construct: purchased R&D systems
T1 sequence (Q12884 1-760): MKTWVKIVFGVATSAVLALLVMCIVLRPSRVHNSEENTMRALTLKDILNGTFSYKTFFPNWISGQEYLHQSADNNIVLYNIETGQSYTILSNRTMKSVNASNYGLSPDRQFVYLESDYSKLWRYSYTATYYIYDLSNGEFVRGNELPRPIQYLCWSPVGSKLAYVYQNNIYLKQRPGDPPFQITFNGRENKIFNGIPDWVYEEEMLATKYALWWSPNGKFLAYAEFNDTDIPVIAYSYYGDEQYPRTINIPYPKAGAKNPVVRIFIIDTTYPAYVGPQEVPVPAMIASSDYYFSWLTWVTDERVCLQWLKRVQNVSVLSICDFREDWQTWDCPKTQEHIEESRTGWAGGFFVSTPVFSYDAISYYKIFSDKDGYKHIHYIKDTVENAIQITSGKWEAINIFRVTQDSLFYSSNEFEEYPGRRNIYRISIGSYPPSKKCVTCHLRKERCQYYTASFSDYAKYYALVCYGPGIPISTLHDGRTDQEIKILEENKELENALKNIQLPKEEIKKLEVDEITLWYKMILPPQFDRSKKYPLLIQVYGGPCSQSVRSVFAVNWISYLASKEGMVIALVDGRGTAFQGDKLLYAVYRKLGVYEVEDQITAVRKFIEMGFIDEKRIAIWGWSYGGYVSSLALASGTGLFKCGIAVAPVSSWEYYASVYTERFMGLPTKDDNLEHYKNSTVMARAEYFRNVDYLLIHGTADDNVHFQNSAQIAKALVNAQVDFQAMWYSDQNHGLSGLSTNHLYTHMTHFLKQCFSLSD
The test can be described thus: FAP inhibition, fluorogenic substrate Z-Gly-Pro-AMC. Format: biochemical. Conditions: for inhibition at 1 µM: read-out: hFAP inhibition % at 1 μM; for IC50: 25° C., Z-Gly-Pro-AMC substrate. The method, then: The compounds according to the present technology were evaluated in terms of the inhibitory effect on the activity of dipeptidyl peptidases including FAP by using a substrate producing fluorescent substances upon enzymatic decomposition. The test was conducted at 25° C. to get a final reaction volume of 100 μL in a 96 black well plate. […] Briefly, the test compounds were dissolved in dimethyl sulfoxide (DMSO) at a concentration of 20 mM and then subjected to serial dilution, thereby creating an 8 point curve. As for the control group, a 6 point curve created by serial dilution of Talabostat in the same buffer solution was used. Fluorescence intensity was measured using a microplate reader (Flexstation3, Molecular Devices) under the wavelength condition exciting at 380 nm and reading the emission at 460 nm. The inhibitory effect of the test compounds was measured as a decrease (%) in the signal rate as compared to the control group without any inhibitor. Data was fixed to a logistic model with four variables and IC50 value was calculated using GraphPad Prism program. Recombinant human FAP (R&D systems) was diluted with 50 mM tris (pH 7.5) buffer comprising 1 M of sodium chloride and 1 mg/ml of bovine serum albumin (BSA) to be 10 ng per final reaction. The test compounds were subjected to serial dilution in a buffer under the condition containing up to 0.1% of DMSO. Z-Gly-Pro-AMC (Bachem) was used as a substrate. By dissolving in DMSO and then diluting in the same buffer, the substrate was added to be […] per final reaction.

Test [2] concerns the target DPP4 (Homo sapiens, UniProt P27487). The experiment in a line: DPP4 inhibition, fluorogenic substrate H-Gly-Pro-AMC. Type of test: biochemical. Also on record: purchased R&D Systems. Conditions: for inhibition at 1 µM: read-out: hDPP4 inhibition % at 1 μM. The method, then:
The compounds according to the present technology were evaluated in terms of the inhibitory effect on the activity of dipeptidyl peptidases including FAP by using a substrate producing fluorescent substances upon enzymatic decomposition. The test was conducted at 25° C. to get a final reaction volume of 100 μL in a 96 black well plate. […] Briefly, the test compounds were dissolved in dimethyl sulfoxide (DMSO) at a concentration of 20 mM and then subjected to serial dilution, thereby creating an 8 point curve. As for the control group, a 6 point curve created by serial dilution of Talabostat in the same buffer solution was used. Fluorescence intensity was measured using a microplate reader (Flexstation3, Molecular Devices) under the wavelength condition exciting at 380 nm and reading the emission at 460 nm. The inhibitory effect of the test compounds was measured as a decrease (%) in the signal rate as compared to the control group without any inhibitor. Data was fixed to a logistic model with four variables and IC50 value was calculated using GraphPad Prism program. As for recombinant human DPP4 (R&D Systems), 25 mM tris (pH 8.0) buffer as a buffer solution and H-Gly-Pro-AMC (Bachem) as a substrate were used. As for recombinant human DPP7 (R&D Systems), 25 mM MES (pH 6.0) buffer as a buffer solution and Lys-Pro-AMC (Bachem) as a substrate were used. As for recombinant human DPP8 (PBS Bioscience), as a buffer solution, a 10 mM tris (pH 7.4) buffer comprising 10 mM of magnesium chloride and 0.05% of Tween 20, and Z-Ala-Pro-AMC (BPS Bioscience) as a substrate were used. As for recombinant human DPP9 (R&D Systems), a 25 mM tris (pH 8.0) buffer as a buffer solution and H-Gly-Pro-AMC (Bachem) as a substrate were used. As for recombinant human PREP (R&D System), as a buffer solution, a 25 mM tris (pH 7.5) buffer comprising 250 mM sodium chloride and 2.5 mM DTT (Dithiolthreitol), and Z-Gly-Pro-AMC (Bachem) as a substrate were used. The evaluation was made by using 10 ng of DPP4, PDD7, and PREP, 20 ng of DPP8, and 50 ng of DPP9 based on the final reaction. In the evaluation of DPP4, the test compounds were subjected to serial dilution in a buffer under the condition containing up to 0.1% of DMSO. In the evaluation of DPP7, DPP8, DPP9, and PREP, the test compounds were subjected to serial dilution in each buffer under the condition containing up to 0.5% of DMSO.

Structures are written as SMILES.

Chain of DPP4 (P27487 whole entry): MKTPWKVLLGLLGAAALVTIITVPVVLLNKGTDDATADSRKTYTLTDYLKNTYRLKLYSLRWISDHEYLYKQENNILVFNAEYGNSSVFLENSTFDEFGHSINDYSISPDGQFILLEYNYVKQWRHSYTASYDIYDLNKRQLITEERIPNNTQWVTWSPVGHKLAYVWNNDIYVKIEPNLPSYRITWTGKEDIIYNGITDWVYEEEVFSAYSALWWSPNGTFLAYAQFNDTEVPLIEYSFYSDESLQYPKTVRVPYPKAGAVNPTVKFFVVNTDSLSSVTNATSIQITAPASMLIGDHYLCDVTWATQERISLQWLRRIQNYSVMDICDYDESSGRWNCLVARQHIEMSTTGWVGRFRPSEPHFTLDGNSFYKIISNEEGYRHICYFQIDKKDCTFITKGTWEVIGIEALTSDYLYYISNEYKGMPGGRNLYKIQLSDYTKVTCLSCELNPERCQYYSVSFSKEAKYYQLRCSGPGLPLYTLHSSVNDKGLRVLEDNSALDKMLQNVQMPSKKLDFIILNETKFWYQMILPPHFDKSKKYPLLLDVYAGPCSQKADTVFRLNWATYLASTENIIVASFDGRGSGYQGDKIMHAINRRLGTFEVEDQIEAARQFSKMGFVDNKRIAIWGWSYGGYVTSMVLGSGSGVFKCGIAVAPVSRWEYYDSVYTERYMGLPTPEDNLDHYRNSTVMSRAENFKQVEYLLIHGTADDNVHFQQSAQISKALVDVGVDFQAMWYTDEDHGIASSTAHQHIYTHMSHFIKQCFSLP

Turning to `N#C[C@@H]1CCCN1C(=O)CN1CC[C@H](NC(=O)c2ccc3ccccc3n2)C1` [Example 33, N—((S)-1-(2-((S)-2-cyanopyrrolidin-1-yl)-2-oxoethyl)pyrrolidin-3-yl)quinoline-2-carboxamide], in test [1], the inhibition at 1 µM stood at 66.1%. Besides, in test [2], the “hDPP4 inhibition % at 1 μM” value is “No inhibition**”.
Consider `N#C[C@@H]1CCCN1C(=O)CN1CC[C@H](NC(=O)c2cccc3cccnc23)C1` [Example 34, N—((S)-1-(2-((S)-2-cyanopyrrolidin-1-yl)-2-oxoethyl)pyrrolidin-3-yl)quinoline-8-carboxamide], for which the concentration for half-maximal inhibition (IC50) in test [1] worked out at 0.191 µM. In addition, the “hDPP4 inhibition % at 1 μM” value in test [2] was “No inhibition**”.
On to `N#C[C@@H]1CCCN1C(=O)CN1CC[C@H](NC(=O)c2nccc3ccccc23)C1` [Example 35, N—((S)-1-(2-((S)-2-cyanopyrrolidin-1-yl)-2-oxoethyl)pyrrolidin-3-yl)isoquinoline-1-carboxamide], for which the inhibition at 1 µM in test [1] worked out at 76.1%. For the same compound, the “hDPP4 inhibition % at 1 μM” value in test [2] is recorded as “No inhibition**”.
`N#C[C@@H]1CCCN1C(=O)CN1CC[C@H](NC(=O)Cc2cccc3ccccc23)C1` [Example 38, N—((S)-1-(2-((S)-2-cyanopyrrolidin-1-yl)-2-oxoethyl)pyrrolidin-3-yl)-2-(naphthalen-1-yl)acetamide]: the IC50 in test [1] is 0.17 µM. In addition, the “hDPP4 inhibition % at 1 μM” value in test [2] is “No inhibition**”.
Take `N#C[C@@H]1CCCN1C(=O)CN1CC[C@H](NC(=O)c2ccccc2-c2ccccc2)C1` [Example 39, N—((S)-1-(2-((S)-2-cyanopyrrolidin-1-yl)-2-oxoethyl)pyrrolidin-3-yl)-[1,1′-biphenyl]-2-carboxamide]: the results for the inhibition at 1 µM in test [1] and in test [2] were 68.1% and 0.4%, respectively.
As for `N#C[C@@H]1CCCN1C(=O)CN1CC[C@H](NC(=O)c2cc3ccccc3o2)C1` [Example 40, N—((S)-1-(2-((S)-2-cyanopyrrolidin-1-yl)-2-oxoethyl)pyrrolidin-3-yl)benzofuran-2-carboxamide], in test [1], the IC50 was determined as 0.0383 µM. Further, the inhibition at 1 µM in test [2] was 3.2%.
On to `Cc1oc2ccccc2c1C(=O)N[C@H]1CCN(CC(=O)N2CCC[C@H]2C#N)C1` [Example 42, N—((S)-1-(2-((S)-2-cyanopyrrolidin-1-yl)-2-oxoethyl)pyrrolidin-3-yl)-2-methylbenzofuran-3-carboxamide], for which the figures for the inhibition at 1 µM in test [1] and in test [2] were 84.6% and 1.4%, respectively.
Consider `Cc1cccc2c(C(=O)N[C@H]3CCN(CC(=O)N4CCC[C@H]4C#N)C3)coc12` [Example 45, N—((S)-1-(2-((S)-2-cyanopyrrolidin-1-yl)-2-oxoethyl)pyrrolidin-3-yl)-7-methylbenzofuran-3-carboxamide], for which, in test [1], the half-maximal inhibitory concentration (IC50) is 0.0301 µM. Moreover, in test [2], the inhibition at 1 µM came out at 1.2%.
On the same counts, the results for `COc1cccc2c(C(=O)N[C@H]3CCN(CC(=O)N4CCC[C@H]4C#N)C3)coc12` [Example 47, N—((S)-1-(2-((S)-2-cyanopyrrolidin-1-yl)-2-oxoethyl)pyrrolidin-3-yl)-7-methoxybenzofuran-3-carboxamide] are 0.0188 µM and 3.7%.
`N#C[C@@H]1CCCN1C(=O)CN1CC[C@H](NC(=O)c2coc3c(F)cccc23)C1` [Example 50, N—((S)-1-(2-((S)-2-cyanopyrrolidin-1-yl)-2-oxoethyl)pyrrolidin-3-yl)-7-fluorobenzofuran-3-carboxamide]: in test [1], the IC50 stood at 0.0164 µM. Also, in test [2], the “hDPP4 inhibition % at 1 μM” value is “No inhibition**”.
Consider `Cc1ccc2occ(C(=O)N[C@H]3CCN(CC(=O)N4CCC[C@H]4C#N)C3)c2c1` [Example 52, N—((S)-1-(2-((S)-2-cyanopyrrolidin-1-yl)-2-oxoethyl)pyrrolidin-3-yl)-5-methylbenzofuran-3-carboxamide], for which the IC50 in test [1] amounted to 0.0136 µM. Moreover, in test [2], the inhibition at 1 µM was determined as 0.5%.
Regarding `Cc1ccc2c(C(=O)N[C@H]3CCN(CC(=O)N4CCC[C@H]4C#N)C3)coc2c1` [Example 53, N—((S)-1-(2-((S)-2-cyanopyrrolidin-1-yl)-2-oxoethyl)pyrrolidin-3-yl)-6-methylbenzofuran-3-carboxamide], in test [1], the 50% inhibitory concentration (IC50) came out at 0.0177 µM. The inhibition at 1 µM in test [2] is 1.3%.
On the same counts, the results for `N#C[C@@H]1CCCN1C(=O)CN1CC[C@H](NC(=O)c2cccc3occc23)C1` [Example 55, N—((S)-1-(2-((S)-2-cyanopyrrolidin-1-yl)-2-oxoethyl)pyrrolidin-3-yl)benzofuran-4-carboxamide] are 0.02 µM and 1.1%.
On the same counts, the results for `N#C[C@@H]1CCCN1C(=O)CN1CC[C@H](NC(=O)c2ccc3occc3c2)C1` [Example 56, N—((S)-1-(2-((S)-2-cyanopyrrolidin-1-yl)-2-oxoethyl)pyrrolidin-3-yl)benzofuran-5-carboxamide] are 0.0452 µM and 2.4%.
Regarding `N#C[C@@H]1CCCN1C(=O)CN1CC[C@H](NC(=O)c2cccc3ccoc23)C1` [Example 58, N—((S)-1-(2-((S)-2-cyanopyrrolidin-1-yl)-2-oxoethyl)pyrrolidin-3-yl)benzofuran-7-carboxamide], the IC50 in test [1] worked out at 0.0625 µM. Also, the “hDPP4 inhibition % at 1 μM” value in test [2] is recorded as “No inhibition**”.
`N#C[C@@H]1CCCN1C(=O)CN1CC[C@H](NS(=O)(=O)c2cc3ccccc3o2)C1` [Example 59, N—((S)-1-(2-((S)-2-cyanopyrrolidin-1-yl)-2-oxoethyl)pyrrolidin-3-yl)benzofuran-2-sulfonamide]: in test [1], the inhibition at 1 µM turned out to be 33.4%. In addition, the “hDPP4 inhibition % at 1 μM” value in test [2] is reported as “No inhibition**”.
For `N#C[C@@H]1CCCN1C(=O)CN1CC[C@H](NS(=O)(=O)c2cc3ccccc3s2)C1` [Example 60, N—((S)-1-(2-((S)-2-cyanopyrrolidin-1-yl)-2-oxoethyl)pyrrolidin-3-yl)benzo[b]thiophene-2-sulfonamide] the same measures were 44.2% and “No inhibition**”.
Consider `N#C[C@@H]1CCCN1C(=O)CN1CC[C@H](Oc2cccc3ccccc23)C1` [Example 62, (S)-1-(2-((S)-3-(naphthalen-1-yloxy)pyrrolidin-1-yl)acetyl)pyrrolidine-2-carbonitrile], for which the IC50 in test [1] stood at 0.0751 µM. For the same compound, the “hDPP4 inhibition % at 1 μM” value in test [2] is “No inhibition**”.

The inhibition is the percentage by which the read-out fell short of the control. Broadly, the IC50 is the concentration at which inhibition is half-maximal.

Values taken from patent publication US11655235B2, “Pyrrolidine and piperidine compounds” (YUHAN CORPORATION, priority 2019, dated 2023).
